Source: patent US11311504B2 (priority 2012, dated 2022)

System: rat
Settings: in vivo

## CC(=O)Nc1ccc(O)cc1 [Paracetamol]
  timepoint of peak effect: 120 min p. appl.
